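Grown in 96-well plates, cells were treated for 48 hours with each compound at five concentrations. Insufficient inhibition: endpoint recorded as highest concentration tested. The concentration for 50% growth inhibition is given as GI50.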 Active and inactive are the calls of the source. Cut-off read from the data, not from the text of the source: active = GI50 up to about 1.1 µM and inactive = higher.
Assays:
Assay in all cases: DTP human tumour cell line panel, 48 h
MDA-MB-231 = test system: MDA-MB-231
HL-60 = test system: HL-60
SF-539 = test system: SF-539
EKVX = test system: EKVX
A549 = test system: A549
SW-620 = test system: SW-620
Malme-3M = test system: Malme-3M
RPMI-8226 = test system: RPMI-8226
UACC-62 = test system: UACC-62
Hs-578T = test system: Hs-578T
HCT-116 = test system: HCT-116
OVCAR-4 = test system: OVCAR-4
CCRF-CEM = test system: CCRF-CEM
MDA-MB-435 = test system: MDA-MB-435
NCI-H23 = test system: NCI-H23
U-251 = test system: U-251
KM12 = test system: KM12
ACHN = test system: ACHN
COLO 205 = test system: COLO 205
DU-145 = test system: DU-145

Row | SMILES | GI50 (MDA-MB-231) | GI50 (HL-60) | GI50 (SF-539) | GI50 (EKVX) | GI50 (A549) | GI50 (SW-620) | GI50 (Malme-3M) | GI50 (RPMI-8226) | GI50 (UACC-62) | GI50 (Hs-578T) | GI50 (HCT-116) | GI50 (OVCAR-4) | GI50 (CCRF-CEM) | GI50 (MDA-MB-435) | GI50 (NCI-H23) | GI50 (U-251) | GI50 (KM12) | GI50 (ACHN) | GI50 (COLO 205) | GI50 (DU-145)
1 | CCOC(=O)C(=O)C(/C(=N/N(C)C)C(=O)Nc1ccc(C)cc1C)c1nc2ccccc2nc1O (stereo not given) | > 100 µM (inactive) | > 100 µM (inactive) | > 100 µM (inactive) | 49.1 µM (inactive) | > 100 µM (inactive) | > 100 µM (inactive) | > 100 µM (inactive) | > 100 µM (inactive) | > 100 µM (inactive) | > 100 µM (inactive) | > 100 µM (inactive) | > 100 µM (inactive) | > 100 µM (inactive) | > 100 µM (inactive) | > 100 µM (inactive) | > 100 µM (inactive) | > 100 µM (inactive) | > 100 µM (inactive) | – | –
2 | CCOC(=O)c1c(N)sc2c1C(C)(C(=O)OCC)CC2 (stereo not given) | > 100 µM (inactive) | 96.8 µM (inactive) | – | 38.6 µM (inactive) | 63.1 µM (inactive) | > 100 µM (inactive) | > 100 µM (inactive) | 78.5 µM (inactive) | > 100 µM (inactive) | 78.7 µM (inactive) | 97.5 µM (inactive) | – | – | – | > 100 µM (inactive) | > 100 µM (inactive) | > 100 µM (inactive) | > 100 µM (inactive) | > 100 µM (inactive) | –
3 | C=C(C)[C@@H]1C[C@H]2O[C@](O)(C(=C)CC(=O)/C=C(/C)C[C@@H]3OC(=O)[C@]24O[C@@H]34)[C@H]1O | > 100 µM (inactive) | – | > 100 µM (inactive) | > 100 µM (inactive) | > 100 µM (inactive) | > 100 µM (inactive) | > 100 µM (inactive) | > 100 µM (inactive) | > 100 µM (inactive) | – | > 100 µM (inactive) | > 100 µM (inactive) | > 100 µM (inactive) | > 100 µM (inactive) | > 100 µM (inactive) | > 100 µM (inactive) | > 100 µM (inactive) | > 100 µM (inactive) | > 100 µM (inactive) | > 100 µM (inactive)
4 | O=C(O)c1cccc(Nc2c(C(=O)O)cccc2[N+](=O)[O-])c1 | > 100 µM (inactive) | > 100 µM (inactive) | > 100 µM (inactive) | > 100 µM (inactive) | > 100 µM (inactive) | – | 38.5 µM (inactive) | > 100 µM (inactive) | > 100 µM (inactive) | > 100 µM (inactive) | > 100 µM (inactive) | > 100 µM (inactive) | > 100 µM (inactive) | – | > 100 µM (inactive) | – | 57.4 µM (inactive) | > 100 µM (inactive) | > 100 µM (inactive) | > 100 µM (inactive)
5 | C[n+]1cccc2ccc(OC(=O)c3ccccc3)cc21 | – | > 10 µM (inactive) | > 100 µM (inactive) | > 100 µM (inactive) | > 100 µM (inactive) | > 100 µM (inactive) | > 100 µM (inactive) | > 100 µM (inactive) | > 100 µM (inactive) | > 100 µM (inactive) | > 100 µM (inactive) | > 100 µM (inactive) | > 10 µM (inactive) | > 100 µM (inactive) | > 100 µM (inactive) | – | > 100 µM (inactive) | > 100 µM (inactive) | > 100 µM (inactive) | > 100 µM (inactive)
6 | CC1=CC[C@@]2(CO)[C@@H]([C@@H]1C)[C@H]1CC[C@@H]3[C@@]4(C)CC[C@H](O)C(C)(C)[C@@H]4CC[C@@]3(C)[C@]1(C)C[C@@H]2O | – | 11.7 µM (inactive) | – | 33.3 µM (inactive) | 15.9 µM (inactive) | 35.6 µM (inactive) | 20.3 µM (inactive) | – | 20.9 µM (inactive) | 15.8 µM (inactive) | 21.5 µM (inactive) | 20.8 µM (inactive) | 41.1 µM (inactive) | 40.2 µM (inactive) | 17.5 µM (inactive) | 14.4 µM (inactive) | 38.5 µM (inactive) | 20.7 µM (inactive) | 17.3 µM (inactive) | 23 µM (inactive)
7 | COc1ccc(/C=N/NC(=S)Nc2cc(C)ccc2OC)cc1 | – | 20.3 µM (inactive) | 24.5 µM (inactive) | 20.8 µM (inactive) | 45.1 µM (inactive) | 34.7 µM (inactive) | 25.8 µM (inactive) | 11.1 µM (inactive) | 36.1 µM (inactive) | 78.5 µM (inactive) | 29.2 µM (inactive) | 23.8 µM (inactive) | 22.3 µM (inactive) | 25.6 µM (inactive) | 29.8 µM (inactive) | – | 31.7 µM (inactive) | 37.2 µM (inactive) | 17 µM (inactive) | 45 µM (inactive)
8 | CC1(C)OC[C@@H]([C@H](C=O)OCc2ccccc2)O1 | > 100 µM (inactive) | – | – | > 100 µM (inactive) | > 100 µM (inactive) | > 100 µM (inactive) | > 100 µM (inactive) | > 100 µM (inactive) | > 100 µM (inactive) | > 100 µM (inactive) | > 100 µM (inactive) | > 100 µM (inactive) | > 100 µM (inactive) | > 100 µM (inactive) | > 100 µM (inactive) | > 100 µM (inactive) | > 100 µM (inactive) | > 100 µM (inactive) | > 100 µM (inactive) | > 100 µM (inactive)
9 | COc1ccc(C)cc1Nc1nnc(-c2ccccc2N)s1 | – | 19.5 µM (inactive) | 82.8 µM (inactive) | 24.7 µM (inactive) | 47.4 µM (inactive) | 36.1 µM (inactive) | 40.6 µM (inactive) | 18.1 µM (inactive) | 37.3 µM (inactive) | 36.2 µM (inactive) | 37.3 µM (inactive) | 26.1 µM (inactive) | 32.3 µM (inactive) | 28.6 µM (inactive) | 34.3 µM (inactive) | – | 28.4 µM (inactive) | 51.8 µM (inactive) | 36.8 µM (inactive) | > 100 µM (inactive)
10 | CCOP(=O)(O)CC1OC(CO)C(O)C1O (stereo not given) | > 100 µM (inactive) | – | > 100 µM (inactive) | > 100 µM (inactive) | > 100 µM (inactive) | > 100 µM (inactive) | > 100 µM (inactive) | – | > 100 µM (inactive) | > 100 µM (inactive) | > 100 µM (inactive) | – | > 100 µM (inactive) | – | > 100 µM (inactive) | > 100 µM (inactive) | – | > 100 µM (inactive) | > 100 µM (inactive) | > 100 µM (inactive)
11 | Cc1cc2c(c(C(=O)NCCC(=O)N[C@@H](C)C(=O)OCc3ccccc3)c1)Oc1c(cc(C)cc1C(=O)NCCC(=O)N[C@@H](C)C(=O)OCc1ccccc1)S2 | > 100 µM (inactive) | – | – | > 100 µM (inactive) | > 100 µM (inactive) | > 100 µM (inactive) | > 100 µM (inactive) | > 100 µM (inactive) | > 100 µM (inactive) | > 100 µM (inactive) | > 100 µM (inactive) | > 100 µM (inactive) | > 100 µM (inactive) | > 100 µM (inactive) | > 100 µM (inactive) | > 100 µM (inactive) | > 100 µM (inactive) | > 100 µM (inactive) | > 100 µM (inactive) | > 100 µM (inactive)
12 | N#CC(C#N)=CNC(=S)Nc1ccc(S(=O)(=O)Nc2nccs2)cc1 | > 100 µM (inactive) | > 100 µM (inactive) | > 100 µM (inactive) | > 100 µM (inactive) | > 100 µM (inactive) | > 100 µM (inactive) | – | – | > 100 µM (inactive) | – | > 100 µM (inactive) | > 100 µM (inactive) | – | > 100 µM (inactive) | > 100 µM (inactive) | > 100 µM (inactive) | > 100 µM (inactive) | > 100 µM (inactive) | > 100 µM (inactive) | > 100 µM (inactive)
13 | COC(=O)c1ccc(OCCn2nnc(C(=O)NN)c2C(=O)NN)cc1 | > 100 µM (inactive) | > 100 µM (inactive) | – | > 100 µM (inactive) | > 100 µM (inactive) | – | > 100 µM (inactive) | > 100 µM (inactive) | – | – | > 100 µM (inactive) | > 100 µM (inactive) | > 100 µM (inactive) | > 100 µM (inactive) | > 100 µM (inactive) | > 100 µM (inactive) | > 100 µM (inactive) | > 100 µM (inactive) | > 100 µM (inactive) | > 100 µM (inactive)
14 | Cc1ccc2c3c1O[C@H]1c4[nH]c5ccccc5c4C[C@@]4(O)[C@@H](C2)N(CC2CC2)CC[C@]314 | 19.4 µM (inactive) | 5.3 µM (inactive) | 16.5 µM (inactive) | 17.4 µM (inactive) | 14.7 µM (inactive) | 10.9 µM (inactive) | 14.5 µM (inactive) | 11.2 µM (inactive) | 16 µM (inactive) | – | 14.5 µM (inactive) | 0.166 µM (active) | 2.78 µM (inactive) | 13.7 µM (inactive) | 19.7 µM (inactive) | 14.4 µM (inactive) | 17 µM (inactive) | 16.6 µM (inactive) | 14.3 µM (inactive) | 16.1 µM (inactive)
15 | O=C1/C(=C/C=C/c2ccccc2)N=C(c2ccccc2)N1c1ccc(S(=O)(=O)Nc2nccs2)cc1 | – | 46.1 µM (inactive) | 20.8 µM (inactive) | 26.3 µM (inactive) | 31.8 µM (inactive) | 35.1 µM (inactive) | 32.7 µM (inactive) | 21.9 µM (inactive) | 18.2 µM (inactive) | 37.8 µM (inactive) | 29.6 µM (inactive) | 30 µM (inactive) | 32.4 µM (inactive) | 28.2 µM (inactive) | 21.3 µM (inactive) | 17.9 µM (inactive) | 26.5 µM (inactive) | 17.8 µM (inactive) | 18.8 µM (inactive) | 37.8 µM (inactive)
